Source: ChEMBL document CHEMBL3407364, “Synthesis and antitumor activity of ring A modified 11-keto-β-boswellic acid derivatives” (Eur J Med Chem, 2015)
Active and inactive are the calls of the source. The rule behind the calls is not given here.

What was measured:
Assay type in all cases: functional, cell-based
HT-29 = assay: Cytotoxicity against human HT-29 cells assessed as cell survival after 96 hrs by SRB assay; conditions: HT-29, 96 h
A2780 [1] = assay: Cytotoxicity against human A2780 cells assessed as cell survival after 96 hrs by SRB assay; conditions: A2780, 96 h
[2] = Cytotoxicity against human DLD1 cells assessed as cell survival after 96 hrs by SRB assay; conditions: DLD-1, 96 h
[3] = Cytotoxicity against human A253 cells assessed as cell survival after 96 hrs by SRB assay; conditions: A253, 96 h
[4] = Cytotoxicity against human HCT8 cells assessed as cell survival after 96 hrs by SRB assay; conditions: HCT-8, 96 h
A2780 [5] = assay: Induction of apoptosis in human A2780 cells assessed as DNA fragmentation at IC90 after 24 hrs by DNA-laddering assay
A2780 [6] = assay: Induction of apoptosis in human A2780 cells assessed as intact cell membrane at IC90 after 24 hrs by trypan blue exclusion assay

SMILES | IC50 (HT-29) | IC50 (A2780 [1]) | IC50 [2] | IC50 [3] | IC50 [4] | Activity (A2780 [5]) | Activity (A2780 [6])
COC(=O)[C@@]1(C)C=CC[C@@]2(C)[C@H]1CC[C@]1(C)[C@@H]2C(=O)C=C2[C@@H]3[C@@H](C)[C@H](C)CC[C@]3(C)CC[C@]21C | 30.2 µM | 40.1 µM | 32.9 µM | 40.2 µM | 39.4 µM | – | –
CC(=O)O[C@@H]1CC[C@@]2(C)[C@@H](CC[C@]3(C)[C@@H]2C(=O)C=C2[C@@H]4[C@@H](C)[C@H](C)CC[C@]4(C)CC[C@]23C)[C@@]1(C)C(=O)O [AKBA] | 19.4 µM | 14.1 µM | 20.9 µM | 16.9 µM | 17.5 µM | – | –
COC(=O)[C@@]1(C)/C(=N/O)CC[C@@]2(C)[C@H]1CC[C@]1(C)[C@@H]2C(=O)C=C2[C@@H]3[C@@H](C)[C@H](C)CC[C@]3(C)CC[C@]21C | 15.4 µM | 18 µM | 13.7 µM | 15.5 µM | 16.4 µM | – | –
C[C@H]1[C@H](C)CC[C@]2(C)CC[C@]3(C)C(=CC(=O)[C@@H]4[C@@]5(C)CCC(=O)[C@@H](C)[C@@H]5CC[C@]43C)[C@H]12 | 28.2 µM | 23.5 µM | 57.3 µM | 39.4 µM | 30.2 µM | – | –
C[C@H]1[C@H](C)CC[C@]2(C)CC[C@]3(C)C(=CC(=O)[C@@H]4[C@@]5(C)CC[C@@H](O)[C@](C)(C(=O)O)[C@@H]5CC[C@]43C)[C@H]12 [11-KETO BOSWELLIC ACID] | 71.9 µM | 37.9 µM | 57.7 µM | 45.9 µM | 44.6 µM | – | –
COC(=O)[C@]1(C)[C@@H]2CC[C@]3(C)[C@H](C(=O)C=C4[C@@H]5[C@@H](C)[C@H](C)CC[C@]5(C)CC[C@]43C)[C@@]2(C)CC1(O)C(=O)O (some centres not stated) | 51.4 µM | 53.6 µM | 56.1 µM | 54.9 µM | 46.9 µM | – | –
C[C@H]1[C@H](C)CC[C@]2(C)CC[C@]3(C)C(=CC=C4[C@@]5(C)CC[C@@H](O)[C@](C)(CO)[C@@H]5CC[C@]43C)[C@H]12 | 23.9 µM | 43.2 µM | 19.5 µM | 18.1 µM | 31.3 µM | – | –
COC(=O)[C@@]1(C)[C@@H](C(=O)O)CC[C@@]2(C)[C@H]1CC[C@]1(C)[C@@H]2C(=O)C=C2[C@@H]3[C@@H](C)[C@H](C)CC[C@]3(C)CC[C@]21C | 34.1 µM | 35.4 µM | 42.7 µM | 38.2 µM | 41.7 µM | – | –
C[C@H]1[C@H](C)CC[C@]2(C)CC[C@]3(C)C(=CC(=O)[C@@H]4[C@@]5(C)CC[C@H](N)[C@](C)(C(=O)O)[C@@H]5CC[C@]43C)[C@H]12 | 8.7 µM | 7.3 µM | 9.9 µM | 5.6 µM | 12.5 µM | Active | Active
COC(=O)[C@@]1(C)C(=O)C(O)=C[C@]2(C)[C@H]3C(=O)C=C4[C@@H]5[C@@H](C)[C@H](C)CC[C@]5(C)CC[C@@]4(C)[C@]3(C)CC[C@@H]12 | 29.9 µM | 41.1 µM | 34.1 µM | 42.3 µM | 39.7 µM | – | –
